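Cultured in 96-well plates, cells were exposed to test compound for 48 hours across five concentrations. GI50 is the concentration that inhibits growth by half. The concentration for full growth arrest is given as TGI.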
How the values were obtained:
Assay in all cases: DTP human tumour cell line panel, 48 h
ACHN renal = tested on: ACHN renal
CAKI-1 renal = tested on: CAKI-1 renal
COLO 205 colon = tested on: COLO 205 colon
HCC-2998 colon = tested on: HCC-2998 colon
HL-60(TB) leukemia = tested on: HL-60(TB) leukemia
MDA-MB-435 = tested on: MDA-MB-435
MOLT-4 leukemia = tested on: MOLT-4 leukemia
PC-3 prostate = tested on: PC-3 prostate
SF-539 CNS = tested on: SF-539 CNS
TK-10 renal = tested on: TK-10 renal

| Compound | GI50 (ACHN renal) | TGI (ACHN renal) | GI50 (CAKI-1 renal) | TGI (CAKI-1 renal) | GI50 (COLO 205 colon) | TGI (COLO 205 colon) | GI50 (HCC-2998 colon) | TGI (HCC-2998 colon) | GI50 (HL-60(TB) leukemia) | TGI (HL-60(TB) leukemia) | GI50 (MDA-MB-435) | TGI (MDA-MB-435) | GI50 (MOLT-4 leukemia) | TGI (MOLT-4 leukemia) | GI50 (PC-3 prostate) | TGI (PC-3 prostate) | GI50 (SF-539 CNS) | TGI (SF-539 CNS) | GI50 (TK-10 renal) | TGI (TK-10 renal) |
| --- | --- | --- | --- | --- | --- | --- | --- | --- | --- | --- | --- | --- | --- | --- | --- | --- | --- | --- | --- | --- |
| CCOC(=O)CC1(O)C=CC(=O)C=C1 | 2.43 µg/mL | 4.6 µg/mL | 2.62 µg/mL | 4.71 µg/mL | 2.59 µg/mL | 6.19 µg/mL | 2.56 µg/mL | 4.68 µg/mL | 1 µg/mL | 24.3 µg/mL | 2.35 µg/mL | 4.89 µg/mL | 0.4 µg/mL | 1.61 µg/mL | 0.348 µg/mL | 0.921 µg/mL | 0.581 µg/mL | 2.68 µg/mL | 2.12 µg/mL | 6.04 µg/mL |
| O=C1C=C(Nc2ccccc2C(=O)CC(=O)C(=O)Nc2cccc(C(F)(F)F)c2)c2ccccc2C1=O | – | > 100 µM | – | 99.8 µM | – | > 100 µM | – | > 78 µM | – | 24.2 µM | – | 20.9 µM | – | > 57.9 µM | – | > 100 µM | – | 49 µM | – | > 100 µM |
| COc1ccc(O)c(C(=O)c2ccc(C(=O)O[C@@H]3CCCNC[C@H]3NC(=O)c3ccncc3)cc2)c1F | 1.49 µM | > 25 µM | 0.543 µM | > 25 µM | 1.16 µM | > 25 µM | 2.08 µM | > 25 µM | 0.753 µM | 2.34 µM | 1.9 µM | > 25 µM | 0.456 µM | > 5.54 µM | 3.74 µM | > 25 µM | 0.0852 µM | 0.779 µM | 3.51 µM | > 25 µM |
| COc1cc(OC)c2c(=O)c(O)c(-c3ccc(OC)c(OC)c3)oc2c1 | – | > 100 µM | – | > 31.4 µM | – | > 100 µM | – | 9.34 µM | – | 44.3 µM | – | > 31.6 µM | – | 9.61 µM | – | > 100 µM | – | > 100 µM | – | > 100 µM |
| CO[C@@H]1[C@@H](OC2OC(C)C(OC3CC(C)(O)C(OC(=O)CC(C)C)C(C)O3)C(N(C)C)C2O)[C@@H](CC=O)C[C@@H](C)C(=O)/C=C/C2O[C@H]2C[C@@H](C)OC(=O)C[C@H]1OC(C)=O (stereo partly specified) | – | 46.8 µM | – | – | – | 26.2 µM | – | 32 µM | – | 25 µM | – | 45.2 µM | – | 27.7 µM | – | 38.4 µM | – | 38.5 µM | – | 50.9 µM |
| O=C(Nc1ccc(Br)cc1)Nc1n[nH]c2ccccc12 | 23.3 µM | > 100 µM | > 100 µM | > 100 µM | > 100 µM | > 100 µM | > 100 µM | > 100 µM | 18.7 µM | > 90 µM | > 100 µM | > 100 µM | 8.98 µM | > 100 µM | > 82.7 µM | > 100 µM | > 70.9 µM | > 100 µM | – | > 26.7 µM |
| CCOc1ccccc1/C=C1\NC(=O)N(/C=C2\C(=O)Oc3ccccc3C2=O)C1=O | – | > 100 µM | – | > 100 µM | – | > 100 µM | – | > 100 µM | – | 74.4 µM | – | > 100 µM | – | 64.3 µM | – | > 100 µM | – | > 100 µM | – | 74.7 µM |
| COc1cc(CSc2nc3ccc(C)cc3c(=O)n2Cc2ccccc2)cc(OC)c1OC | 3.89 µM | 55.7 µM | 2.48 µM | > 100 µM | 1.05 µM | 3.13 µM | 3.96 µM | > 100 µM | 3.3 µM | > 100 µM | 0.337 µM | 2.62 µM | 4.57 µM | > 100 µM | 2.66 µM | > 100 µM | 2.26 µM | 8.32 µM | 6.47 µM | 47.9 µM |
| CN1C(=O)CNC(=O)[C@H](NC(=O)c2nc3ccccc3cc2O)CSSC[C@H]1C(=O)NCCc1nc2ccccc2cc1O | 15.3 µM | 38.7 µM | > 46.6 µM | > 78.1 µM | 2.94 µM | 12.7 µM | 15.7 µM | > 75.9 µM | 1.22 µM | 5.1 µM | 2.5 µM | 35.8 µM | 1.4 µM | 14.8 µM | 18.9 µM | > 70.4 µM | 15.2 µM | 39.1 µM | 20.5 µM | 47.3 µM |
| CC(=O)OC1COC(S[As](C)C)C(OC(C)=O)C1OC(C)=O (stereo unspecified) | 0.195 µM | 1.52 µM | 0.041 µM | 0.74 µM | 0.575 µM | 4.96 µM | 0.333 µM | 0.922 µM | < 0.0158 µM | 0.072 µM | 0.0643 µM | 0.358 µM | 0.0152 µM | 0.0672 µM | 0.164 µM | 2.04 µM | 0.0713 µM | 0.315 µM | 0.08 µM | 0.832 µM |
| O=C(N/N=C1\CCc2ccccc2C1)N/N=C1\CCc2ccccc2C1 | – | > 10 µM | – | > 10 µM | – | > 10 µM | – | > 10 µM | – | > 10 µM | – | > 10 µM | – | > 10 µM | – | > 10 µM | – | – | – | > 10 µM |
| COC(=O)c1ccccc1NC(=O)/C(=N\NC(C)(C)C)C(C#N)c1nc(-c2ccc([N+](=O)[O-])cc2)cs1 (stereo unspecified) | – | > 100 µM | – | > 100 µM | – | > 100 µM | – | > 100 µM | – | > 100 µM | – | > 100 µM | – | > 100 µM | – | > 100 µM | – | > 100 µM | – | – |

From PubChem BioAssay (NCI)
